Like-named read-outs stand apart in the source and are kept apart here.
Key:
MOLM-13 cells [1] = test: Cell viability / cell growth inhibition of MOLM-13 cells, GSPT1 degrader with or without gilteritinib; assay type: cell-based; conditions: combined with FLT3 inhibitor gilteritinib (20 nM in FIG. 2A-2C)
Procedure: FIG. 2A is a graph of cell viability in MOML-13 cells treated with varying doses of GS-002, with or without gilteritinib at 20 nM.
FIG. 2B is a graph of cell viability in MOML-13 cells treated with varying doses of GS-005, with or without gilteritinib at 20 nM.
FIG. 2C is a graph of cell viability in MOML-13 cells treated with varying doses of GS-006, with or without gilteritinib at 20 nM.
When combined with FLT3 inhibitor gilteritinib, the potency of some of the compounds was increased synergistically.

MV4;11 cells = test: Cell viability assay (CellTiter-Glo) in MV4;11 cells, alone or with gilteritinib; assay type: cell-based; conditions: Homo sapiens, MV4-11, 72 h, MV4;11 cells, 3 days, CellTiter-Glo, read-out: MV4
MOLM-13 cells [2] = test: Cell viability assay (CellTiter-Glo) in MOLM-13 cells, alone or with gilteritinib; assay type: cell-based; conditions: MOLM-13 cells; for IC50: Homo sapiens, MOLM-13, 72 h, 3 days, CellTiter-Glo; for Sensitivity of FLT3-mutant AML cells to GSPT1 degrader upon FLT3 inhibition: with or without 20 nM gilteritinib, 3 days (FIG. 2A-2C)
GSPT1 = GSPT1 (Homo sapiens, UniProt P15170+Q96SW2); conditions: cereblon-dependent; also other targets such as IKZF1 and IKZF3 (Matyskiela, Lu et al. 2016); cited from earlier work
GSPT1, sequence (P15170 whole entry): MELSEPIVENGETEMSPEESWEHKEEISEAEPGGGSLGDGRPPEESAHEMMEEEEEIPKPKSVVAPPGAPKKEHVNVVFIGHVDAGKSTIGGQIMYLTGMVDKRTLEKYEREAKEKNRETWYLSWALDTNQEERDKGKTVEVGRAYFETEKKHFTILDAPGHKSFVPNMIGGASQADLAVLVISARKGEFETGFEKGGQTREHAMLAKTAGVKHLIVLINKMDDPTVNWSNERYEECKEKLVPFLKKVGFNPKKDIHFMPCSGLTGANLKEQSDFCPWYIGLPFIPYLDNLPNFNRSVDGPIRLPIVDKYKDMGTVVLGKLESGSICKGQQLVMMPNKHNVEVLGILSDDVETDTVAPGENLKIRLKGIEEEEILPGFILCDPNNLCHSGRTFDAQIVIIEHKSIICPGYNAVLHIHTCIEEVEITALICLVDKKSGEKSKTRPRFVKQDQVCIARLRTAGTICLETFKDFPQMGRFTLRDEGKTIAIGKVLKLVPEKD
GSPT1, sequence (Q96SW2 whole entry): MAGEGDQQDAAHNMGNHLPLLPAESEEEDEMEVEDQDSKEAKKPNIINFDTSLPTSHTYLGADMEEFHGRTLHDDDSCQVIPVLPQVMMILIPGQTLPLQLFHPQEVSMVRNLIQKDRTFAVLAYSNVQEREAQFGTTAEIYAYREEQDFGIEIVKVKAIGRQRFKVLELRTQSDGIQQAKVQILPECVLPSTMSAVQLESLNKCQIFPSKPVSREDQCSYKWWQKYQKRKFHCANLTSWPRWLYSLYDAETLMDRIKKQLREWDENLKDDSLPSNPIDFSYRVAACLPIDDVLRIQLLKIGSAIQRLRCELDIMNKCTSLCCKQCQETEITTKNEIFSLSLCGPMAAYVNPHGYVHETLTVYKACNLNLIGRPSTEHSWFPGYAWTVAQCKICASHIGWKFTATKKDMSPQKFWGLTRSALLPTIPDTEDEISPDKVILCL
GSPT1, sequence (Q16531 whole entry partner): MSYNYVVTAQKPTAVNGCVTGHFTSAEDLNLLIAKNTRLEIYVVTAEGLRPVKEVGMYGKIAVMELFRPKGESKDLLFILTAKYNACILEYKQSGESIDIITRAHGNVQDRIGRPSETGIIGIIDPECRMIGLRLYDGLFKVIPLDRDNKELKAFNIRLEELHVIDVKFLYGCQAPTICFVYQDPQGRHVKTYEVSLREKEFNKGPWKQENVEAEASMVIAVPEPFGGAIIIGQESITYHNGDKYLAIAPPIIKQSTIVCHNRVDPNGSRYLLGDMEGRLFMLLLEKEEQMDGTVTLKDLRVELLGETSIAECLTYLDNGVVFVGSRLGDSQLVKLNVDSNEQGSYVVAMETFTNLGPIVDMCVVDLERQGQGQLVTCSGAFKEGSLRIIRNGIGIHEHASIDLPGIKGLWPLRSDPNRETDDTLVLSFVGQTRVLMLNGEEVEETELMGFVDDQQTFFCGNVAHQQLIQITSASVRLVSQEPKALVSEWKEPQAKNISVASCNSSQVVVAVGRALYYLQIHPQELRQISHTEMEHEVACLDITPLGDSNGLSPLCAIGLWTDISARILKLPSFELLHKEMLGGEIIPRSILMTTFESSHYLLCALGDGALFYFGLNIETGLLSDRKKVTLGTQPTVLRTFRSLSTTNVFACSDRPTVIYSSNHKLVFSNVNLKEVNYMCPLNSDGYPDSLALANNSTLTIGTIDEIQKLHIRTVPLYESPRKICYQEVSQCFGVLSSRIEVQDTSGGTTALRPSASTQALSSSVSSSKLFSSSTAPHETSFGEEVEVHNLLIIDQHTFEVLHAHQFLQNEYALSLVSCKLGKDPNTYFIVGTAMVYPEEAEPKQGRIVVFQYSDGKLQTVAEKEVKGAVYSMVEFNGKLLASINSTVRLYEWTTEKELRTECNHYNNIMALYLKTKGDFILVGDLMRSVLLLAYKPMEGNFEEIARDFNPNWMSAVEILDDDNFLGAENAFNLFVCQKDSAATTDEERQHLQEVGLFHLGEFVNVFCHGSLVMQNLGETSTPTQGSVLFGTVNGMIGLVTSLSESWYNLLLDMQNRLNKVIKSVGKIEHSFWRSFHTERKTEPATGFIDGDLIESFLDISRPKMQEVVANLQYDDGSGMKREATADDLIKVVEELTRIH

tested cell lines = tested cell lines (Matyskiela, Lu et al. 2016); cited from earlier work
[3] = with 10 nM gilteritinib, 11 IC50 gilteritinib
[4] = with 20 nM gilteritinib, read-out: MOLM-13 IC50 gilteritinib
[5] = without gilteritinib, read-out: MOLM-13 IC50

IC50 (MV4;11 cells; [3]) | IC50 (MV4;11 cells; without gilteritinib, 11 IC50) | IC50 (MOLM-13 cells [2]; [4]) | IC50 (MOLM-13 cells [2]; [5]) | Structure (SMILES) | potency combined with gilteritinib, cell growth inhibition (MOLM-13 cells [1]) | Sensitivity of FLT3-mutant AML cells to GSPT1 degrader upon FLT3 inhibition (MOLM-13 cells [2]) | degradation of GSPT1 (GSPT1) | toxicity in cell lines (tested cell lines)
4.6 nM | 12 nM | 0.3 nM | 29 nM | O=C1CCC(N2C(=O)c3ccc(NCCCCCC(=O)N4CCC(n5cc(-c6ccc7ccccc7n6)cn5)CC4)cc3C2=O)C(=O)N1 (centres unmarked) [GS-006, 2-(2,6-dioxopiperidin-3-yl)-5-((6-oxo-6-(4-(4-(quinolin-2-yl)-1H-pyrazol-1-yl)piperidin-1-yl)hexyl)amino)isoindoline-1,3-dione] | significantly improved | remarkably increases sensitivity | – | –
1.8 nM | 6 nM | 0.2 nM | 11.8 nM | O=C1CCC(N2C(=O)c3ccc(NCCCCCC(=O)N4CCC(n5cc(-c6cnc7ccccc7n6)cn5)CC4)cc3C2=O)C(=O)N1 (centres unmarked) [GS-005, 2-(2,6-dioxopiperidin-3-yl)-5-((6-oxo-6-(4-(4-(quinoxalin-2-yl)-1H-pyrazol-1-yl)piperidin-1-yl)hexyl)amino)isoindoline-1,3-dione] | significantly improved | remarkably increases sensitivity | – | –
– | – | – | – | Cc1ccc(NC(=O)NCc2ccc3c(c2)CN(C2CCC(=O)NC2=O)C3=O)cc1Cl (centres unmarked) [CC-885] | – | – | cereblon-dependent degradation of GSPT1 | significant toxicity in the vast majority of tested cell lines
3 nM | 227 nM | 1.9 nM | 583 nM | O=C1CCC(N2C(=O)c3ccc(NCCCCCC(=O)N4CCC(n5cc(-c6cnc7cccc(Br)c7n6)cn5)CC4)cc3C2=O)C(=O)N1 (centres unmarked) [GS-002, 5-((6-(4-(4-(8-bromoquinoxalin-2-yl)-1H-pyrazol-1-yl)piperidin-1-yl)-6-oxohexyl)amino)-2-(2,6-dioxopiperidin-3-yl)isoindoline-1,3-dione] | significantly improved | remarkably increases sensitivity | – | –

From patent US20240050428A1 (Cullgen (Shanghai), Inc., priority 2020, published 2024)
